Drawing on the Kinase Knowledgebase extract (Sharma et al. 2016), this text covers IC50, Ki and inhibition for 79 molecules.

ROCK2 (human), sequence (O75116 whole entry, looked up): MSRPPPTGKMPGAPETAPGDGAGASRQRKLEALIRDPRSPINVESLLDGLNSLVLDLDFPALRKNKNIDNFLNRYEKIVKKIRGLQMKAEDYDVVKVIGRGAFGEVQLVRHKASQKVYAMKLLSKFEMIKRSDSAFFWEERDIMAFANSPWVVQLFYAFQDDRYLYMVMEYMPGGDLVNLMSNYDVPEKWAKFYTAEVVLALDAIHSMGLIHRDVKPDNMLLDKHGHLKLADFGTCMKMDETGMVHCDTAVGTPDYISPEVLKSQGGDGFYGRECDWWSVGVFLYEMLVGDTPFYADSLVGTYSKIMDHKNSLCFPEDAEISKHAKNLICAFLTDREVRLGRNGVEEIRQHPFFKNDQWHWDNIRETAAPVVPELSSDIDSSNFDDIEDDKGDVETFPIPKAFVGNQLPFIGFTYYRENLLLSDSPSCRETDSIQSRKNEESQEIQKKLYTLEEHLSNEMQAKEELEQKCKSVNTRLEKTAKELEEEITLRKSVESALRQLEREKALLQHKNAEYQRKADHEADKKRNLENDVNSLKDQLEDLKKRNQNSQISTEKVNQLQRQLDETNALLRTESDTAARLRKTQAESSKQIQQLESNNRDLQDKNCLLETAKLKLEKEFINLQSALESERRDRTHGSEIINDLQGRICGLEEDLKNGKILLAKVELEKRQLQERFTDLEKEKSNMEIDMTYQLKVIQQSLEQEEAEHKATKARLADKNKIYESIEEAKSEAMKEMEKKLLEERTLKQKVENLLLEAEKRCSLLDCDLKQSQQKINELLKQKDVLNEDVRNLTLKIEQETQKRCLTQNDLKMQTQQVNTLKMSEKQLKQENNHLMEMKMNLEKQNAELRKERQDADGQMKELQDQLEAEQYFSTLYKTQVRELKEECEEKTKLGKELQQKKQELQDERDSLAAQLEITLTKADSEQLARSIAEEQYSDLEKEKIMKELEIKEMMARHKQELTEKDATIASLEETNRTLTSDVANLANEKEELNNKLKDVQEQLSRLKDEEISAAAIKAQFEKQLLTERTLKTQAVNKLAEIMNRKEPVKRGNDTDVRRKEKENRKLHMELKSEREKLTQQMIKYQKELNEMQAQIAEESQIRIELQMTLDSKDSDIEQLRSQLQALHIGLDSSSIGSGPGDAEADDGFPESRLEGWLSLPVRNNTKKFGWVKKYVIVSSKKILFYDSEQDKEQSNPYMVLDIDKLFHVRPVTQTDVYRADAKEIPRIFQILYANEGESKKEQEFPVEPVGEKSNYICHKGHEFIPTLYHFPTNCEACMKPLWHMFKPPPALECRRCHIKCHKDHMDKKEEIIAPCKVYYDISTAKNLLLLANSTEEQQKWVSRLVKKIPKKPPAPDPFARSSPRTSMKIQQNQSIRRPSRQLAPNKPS

One experiment deals with EGFR (UniProt P00533).
EGFR, sequence (P00533 whole entry, looked up): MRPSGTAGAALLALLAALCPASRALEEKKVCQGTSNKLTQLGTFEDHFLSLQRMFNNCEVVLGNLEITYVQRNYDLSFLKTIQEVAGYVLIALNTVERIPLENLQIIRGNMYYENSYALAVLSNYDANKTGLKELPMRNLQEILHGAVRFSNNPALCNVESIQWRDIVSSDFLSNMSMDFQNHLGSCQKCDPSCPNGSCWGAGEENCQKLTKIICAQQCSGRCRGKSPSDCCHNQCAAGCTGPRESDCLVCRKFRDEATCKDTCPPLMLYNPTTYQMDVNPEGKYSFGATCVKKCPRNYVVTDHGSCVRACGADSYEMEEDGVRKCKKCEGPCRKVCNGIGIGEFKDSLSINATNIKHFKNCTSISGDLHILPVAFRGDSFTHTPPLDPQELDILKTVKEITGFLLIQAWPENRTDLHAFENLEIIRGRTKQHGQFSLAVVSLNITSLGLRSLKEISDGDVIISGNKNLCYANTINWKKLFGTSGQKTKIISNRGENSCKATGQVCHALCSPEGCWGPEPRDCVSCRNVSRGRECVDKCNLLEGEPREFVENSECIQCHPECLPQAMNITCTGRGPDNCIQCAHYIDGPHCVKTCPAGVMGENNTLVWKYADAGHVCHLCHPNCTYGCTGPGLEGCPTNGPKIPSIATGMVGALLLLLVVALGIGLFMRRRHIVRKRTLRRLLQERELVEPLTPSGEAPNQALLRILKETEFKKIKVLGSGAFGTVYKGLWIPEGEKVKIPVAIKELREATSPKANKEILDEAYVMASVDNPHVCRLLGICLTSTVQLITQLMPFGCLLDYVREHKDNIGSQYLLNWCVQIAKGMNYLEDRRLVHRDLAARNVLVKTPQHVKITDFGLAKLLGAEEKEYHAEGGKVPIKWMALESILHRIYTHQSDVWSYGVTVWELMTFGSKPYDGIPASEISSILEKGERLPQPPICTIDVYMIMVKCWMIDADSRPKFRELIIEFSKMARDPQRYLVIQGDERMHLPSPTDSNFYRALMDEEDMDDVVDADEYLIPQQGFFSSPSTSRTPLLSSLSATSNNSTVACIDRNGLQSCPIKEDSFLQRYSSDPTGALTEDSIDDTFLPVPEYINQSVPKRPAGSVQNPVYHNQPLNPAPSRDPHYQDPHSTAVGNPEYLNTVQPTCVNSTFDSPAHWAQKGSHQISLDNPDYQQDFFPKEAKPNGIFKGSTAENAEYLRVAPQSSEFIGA
Test: not given
The IC50 is the concentration needed to halve the response being measured. The low end stands for greater potency in that assay, the high end for weaker potency in that assay. As for `NC1CCN(Cc2cccc3ncnc(Nc4ccc(OCc5cccc(F)c5)c(Cl)c4)c23)CC1`, the IC50 was in the range of 0.001 to 5 µM. Still for that read-out and setting: then `C#Cc1cccc(Nc2ncnc3cccc(CN4CC[C@@H](N)[C@H](O)C4)c23)c1`, with 0.001 to 5 µM; and `N[C@@H]1CCN(Cc2cccc3ncnc(Nc4cccc(Cl)c4)c23)C[C@H]1O`, with 0.001 to 5 µM; and `CNC(=O)[C@@H]1CN(Cc2cccc3ncnc(Nc4cccc(OC)c4)c23)CC[C@H]1N`, with 0.001 to 5 µM. Take `COc1cccc(Nc2ncnc3cccc(CN4CC[C@@H](N)[C@H](O)C4)c23)c1`: the IC50 is 0.001 to 5 µM. On the same count and under the same terms, then `C#Cc1cccc(Nc2ncnc3cccc(CN4CC[C@@H](N)[C@H](CO)C4)c23)c1`, with 0.001 to 5 µM; and `N[C@@H]1CCN(Cc2cccc3ncnc(Nc4ccc5c(cnn5Cc5cccc(F)c5)c4)c23)C[C@H]1O`, with 0.001 to 5 µM. The molecule `COc1cccc(Nc2ncnc3cccc(CN4CCC(N)CC4)c23)c1` showed a half-maximal inhibitory concentration (IC50) of 0.001 to 5 µM.

The target of a further experiment is EGFR (human) (UniProt P00533).
EGFR (human), sequence (P00533 whole entry, looked up): as above
Test: not given
`C[C@@H]1CN(Cc2ccc(NC(=O)c3sc4ncnc5c4c3NC(=O)N5c3ccc(Oc4ccccc4)cc3)cc2)C[C@H](C)O1` registered an IC50 of 0.031 µM. This lies in the double-digit nanomolar range. On the same count and under the same terms, to `O=C(Nc1ccc(CNC[C@@H]2CCCO2)cc1)c1sc2ncnc3c2c1NC(=O)N3c1ccc(F)c(Cl)c1` belongs 0.044 µM.

Consider `CC(C)(C)OC(=O)NCCCNC(=O)c1sc2ncnc3c2c1NC(=O)N3c1ccc2c(ccn2Cc2cccc(F)c2)c1`, for which the IC50 came to 0.346 µM. As for `N#Cc1ccc(NC(=O)c2sc3ncnc4c3c2NC(=O)N4c2ccc(F)c(Cl)c2)cn1`, the IC50 was 0.116 µM. Against the preceding molecule, the IC50 is about 3-fold lower. Consider `O=C(Nc1ccc(CN2CCOCC2)cc1)c1sc2ncnc3c2c1NC(=O)N3c1ccc(F)cc1Cl`, for which the IC50 was determined as 0.023 µM. Against the preceding molecule, the IC50 is about 5-fold lower. Still for that read-out and setting: then `O=C(O)c1sc2ncnc3c2c1NC(=O)N3c1ccc(F)c(Cl)c1`, with 1.7 µM.

As to `CC(C)(C)OC(=O)N1CCC(Cc2ccc(NC(=O)c3sc4ncnc5c4c3NC(=O)N5c3ccc4c(ccn4Cc4cccc(F)c4)c3)cc2)CC1`, the IC50 was 0.168 µM. Molecule `O=C(Nc1ccc(CN2CCCCC2)cc1)c1sc2ncnc3c2c1NC(=O)N3c1ccc(Cc2ccccc2)cc1` yielded an IC50 of 0.11 µM. This IC50 lies about 1.5-fold lower than the previous one.

The target of another experiment is MAPK14 (UniProt Q16539). In words: Inhibition of MAPK Kinase Activity.
MAPK14, sequence (Q16539 whole entry, looked up): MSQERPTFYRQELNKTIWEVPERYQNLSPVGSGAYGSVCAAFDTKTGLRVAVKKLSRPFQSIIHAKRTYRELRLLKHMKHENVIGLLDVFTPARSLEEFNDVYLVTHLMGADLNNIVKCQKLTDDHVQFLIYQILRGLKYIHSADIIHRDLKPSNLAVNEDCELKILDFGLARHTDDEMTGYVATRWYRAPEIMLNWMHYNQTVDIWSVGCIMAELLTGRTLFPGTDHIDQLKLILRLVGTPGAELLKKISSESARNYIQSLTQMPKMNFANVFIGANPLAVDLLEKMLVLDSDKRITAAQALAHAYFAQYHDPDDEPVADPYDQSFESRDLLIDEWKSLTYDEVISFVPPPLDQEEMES
`N[C@H](COc1cncc(-c2ccc3[nH]ncc3c2)c1)Cc1c[nH]c2ccccc12` displayed an IC50 of 12.2 µM. Still for that read-out and setting: to `Clc1cccc(Nc2cncc(-c3cncc(NCCCn4cncn4)c3)n2)c1` belongs over 10 µM; to `Clc1cccc(Nc2cncc(-c3cncc(NCCCc4cccnc4)c3)n2)c1`, over 10 µM. The same measure, in the same setting: to `OCCCNc1cncc(-c2cncc(Nc3cccc(Cl)c3)n2)c1` belongs over 10 µM; to `Clc1cccc(Nc2cncc(-c3cncc(NCCCn4cccn4)c3)n2)c1`, over 10 µM.

Molecule `N[C@H](COc1cncc(-c2cc3cn[nH]c3cn2)c1)Cc1c[nH]c2ccccc12` showed an IC50 of 0.75 µM. Same read-out and setting: to `CN(C)CCNc1cncc(-c2cncc(Nc3cccc(Cl)c3)n2)c1` belongs over 10 µM; to `OCCCCNc1cncc(-c2cncc(Nc3cccc(Cl)c3)n2)c1`, over 10 µM.

The target in the next experiment is CDK2 (UniProt P24941). In words: Enzyme Assay.
One may read the Ki as a dissociation constant, usually derived from enzyme kinetics or from competition with a known ligand. A low value points to tighter binding. In turn, `N[C@H](COc1cncc(-c2ccc3[nH]ncc3c2)c1)Cc1c[nH]c2ccccc12` yielded a half-inhibitory concentration (IC50) of 0.063 µM and a Ki of 0.042 µM. For `N[C@H](COc1cncc(-c2cc3cn[nH]c3cn2)c1)Cc1c[nH]c2ccccc12`, the IC50 was 0.006 µM.

The next experiment addresses ROCK2 (human) (UniProt O75116). Put plainly: Assessment of ROCK2 Kinase Activity.
For `CC1CN(c2ccnc(N)n2)c2ccc([N+](=O)[O-])cc21` (configuration not stated), the IC50 amounted to 0.4 µM. On the same count and under the same terms, to `COc1cccc(CNC(=O)c2cccc3c2ccn3-c2ccnc(N)n2)c1` belongs 0.07 µM; to `C[C@@H](NC(=O)c1cccc2c1ccn2-c1ccnc(N)n1)c1ccccc1`, 0.06 µM; to `Clc1cnc2ccc(NCCCN3CCOCC3)nn12`, 71 µM. Still for that read-out and setting: then `CC1CN(c2ccnc(N)n2)c2ccc(F)cc21` (configuration not stated), with 0.2 µM. Same read-out and setting: to `N#Cc1c[nH]c2nccc(Oc3ccc(Nc4cc(C(F)(F)F)nc(N)n4)cc3F)c12` belongs 0.002 µM; to `Nc1nc(Nc2ccc(Oc3ccnc4[nH]cc(Cl)c34)c(F)c2)cc(C(F)(F)F)n1`, 0.004 µM. Molecule `CC1CN(c2ccnc(N)n2)c2ccc(Cl)cc21` (configuration not stated) had an IC50 of 0.5 µM.

For another experiment, the target named is EGFR (human) (UniProt P00533).
Test: not given
This is another data set of the same source.
Take `Cc1cc(C)c(/C(C(=O)Nc2cccc(F)c2)=C2\C(=O)Nc3ccccc32)[nH]1`: the IC50 is over 100 µM. `Cc1cc(C)c(/C(C(=O)Nc2ccc(F)c(Cl)c2)=C2\C(=O)Nc3ccccc32)[nH]1` had an IC50 of over 100 µM.

For the molecule `CCN(CC)Cc1cc(NC(=O)/C(=C2/C(=O)Nc3ccccc32)c2[nH]c(C)cc2C)ccc1O`, the half-maximal inhibitory concentration (IC50) is over 100 µM.

`Cc1cc(C)c(/C(C(=O)O)=C2\C(=O)Nc3ccccc32)[nH]1` displayed an IC50 of over 100 µM.

As to `Cc1cc(C)c(/C(C(=O)Nc2cccc(N(C)C)c2)=C2\C(=O)Nc3ccccc32)[nH]1`, the IC50 is over 100 µM.

The molecule `Cc1cc(C)c(/C(C(=O)Nc2ccccc2Cl)=C2\C(=O)Nc3ccccc32)[nH]1` displayed a half-inhibitory concentration (IC50) of over 100 µM. Still for that read-out and setting: then `O=C(O)/C(=C1/C(=O)Nc2ccccc21)c1ccccc1`, with over 100 µM. Same read-out and setting: then `CCN(CC)CCNC(=O)/C(=C1/C(=O)Nc2ccccc21)c1[nH]c(C)cc1C`, with over 100 µM.

A further experiment addresses PIK3CA (human) (UniProt P42336). In words: Assessment of Growth Inhibition of U937 Cells.
The molecule `NCCN1C(=O)SC(CCCc2ccccc2)C1=O` (configuration not stated) showed an IC50 of over 30 µM. Consider `NCCN1C(=O)SC(=CCCc2cccnc2)C1=O`, for which the IC50 was over 30 µM. Same read-out and setting: to `NCCN1C(=O)c2ccc(Cc3ccccc3)cc2C1=O` belongs over 30 µM. Still for that read-out and setting: then `CS(=O)(=O)Nc1ccc(CCC=C2SC(=O)N(CCN)C2=O)cc1`, with over 30 µM; and `O=C(O)N1C(=O)SC(=CCCc2ccccc2)C1=O`, with over 30 µM; and `NCCN1C(=O)SC(=CCCc2ccc([N+](=O)[O-])cc2)C1=O`, with over 30 µM. `NCCN1C(=O)SC(=CCCc2ccc(S(N)(=O)=O)cc2)C1=O` yielded an IC50 of over 30 µM. Turning to `CCCC=C1SC(=O)N(CCN)C1=O`, the half-inhibitory concentration (IC50) was over 30 µM. Same read-out and setting: then `O=C1SC(=CCCc2ccccc2)C(=O)N1CN1CCOCC1`, with over 30 µM.

The next experiment addresses EGFR (UniProt P00533).
Test: not given
This is another data set of the same source.
As to `NCCc1cc(SC[C@H](NC(=O)CC[C@H](N)C(=O)O)C(=O)NCC(=O)O)c(O)c(O)c1SC[C@H](NC(=O)CC[C@H](N)C(=O)O)C(=O)NCC(=O)O`, the inhibition was 7.6. `C[C@@](Cc1cc(O)c(O)c(SC[C@H](NC(=O)CC[C@H](N)C(=O)O)C(=O)NCC(=O)O)c1)(NC(=O)CCN)C(=O)O` registered an inhibition of 5.2. On the same count and under the same terms, then `NCCc1cc(O)c(O)c(SC[C@H](NC(=O)CC[C@H](N)C(=O)O)C(=O)NCC(=O)O)c1`, with 1. Same read-out and setting: to `N[C@@H](CCC(=O)N[C@@H](CSc1cc(C[C@H](N)C(=O)O)cc(O)c1O)C(=O)NCC(=O)O)C(=O)O` belongs 4.4; to `N[C@@H](CSc1cc(C[C@H](N)C(=O)O)cc(O)c1O)C(=O)O`, 2.9; to `NCCC(=O)N[C@H](Cc1cc(O)c(O)c(SC[C@H](NC(=O)CC[C@H](N)C(=O)O)C(=O)NCC(=O)O)c1)C(=O)O`, 8.2. The same measure, in the same setting: to `NCCC(=O)N[C@@H](Cc1cc(O)c(O)c(SC[C@H](NC(=O)CC[C@H](N)C(=O)O)C(=O)NCC(=O)O)c1)C(=O)O` belongs 2.2; to `NCCC(=O)NCCc1cc(O)c(O)c(SC[C@H](NC(=O)CC[C@H](N)C(=O)O)C(=O)NCC(=O)O)c1`, 4.9; to `NCCC(=O)N[C@@H](Cc1cc(O)c(O)c(SC[C@H](N)C(=O)O)c1)C(=O)O`, 2.5.

The next experiment has as its target EGFR (human) (UniProt P00533).
Test: not given
This is another data set of the same source.
Consider `Clc1cccc(Nc2ncnc3sc4c(c23)CCCC4)c1`, for which the IC50 was 0.00197 µM. With `Brc1ccc(Nc2ncnc3sc4c(c23)CCCC4)cc1`, the IC50 amounted to 0.0503 µM.

With `COc1cccc(Nc2ncnc3sc4c(c23)CCCC4)c1`, the IC50 was found to be 0.034 µM.

Another experiment concerns the target EGFR (human) (UniProt P00533).
Test: not given
This is another data set of the same source.
Take `COc1cc2ncnc(NS(=O)(=O)c3ccc(C)cc3)c2cc1OC`: the IC50 was at most 1 µM. Same read-out and setting: then `COc1cc2ncnc(NS(=O)(=O)c3ccccc3Br)c2cc1OC`, with at most 1 µM; and `COc1cc2ncnc(NS(=O)(=O)c3cccc(Cl)c3)c2cc1OC`, with at most 1 µM. On the same count and under the same terms, to `COc1cc2ncnc(NS(=O)(=O)c3ccccc3C#N)c2cc1OC` belongs at most 1 µM. On the same count and under the same terms, then `COc1ccc(S(=O)(=O)Nc2ncnc3cc(OC)c(OC)cc23)cc1`, with at most 1 µM; and `COc1cc2ncnc(NS(=O)(=O)c3ccc(Br)cc3)c2cc1OC`, with at most 1 µM; and `COc1cc2ncnc(NS(=O)(=O)c3ccccc3I)c2cc1OC`, with at most 1 µM. Consider `COc1cc2ncnc(NS(=O)(=O)c3ccccc3Cl)c2cc1OC`, for which the IC50 was at most 1 µM. On the same count and under the same terms, then `COc1cc2ncnc(NS(=O)(=O)c3ccc(Cl)cc3)c2cc1OC`, with at most 1 µM.

The target of the next experiment is EGFR (UniProt P00533).
Test: not given
This is another data set of the same source.
`CC1=CCC[C@H]2[C@](C)(CC3=C(O)C(=O)C=C(N[C@@H](CO)C(=O)O)C3=O)[C@@H](C)CC[C@]12C` displayed an IC50 of 170 µM. Same read-out and setting: to `CC1=CCC[C@H]2[C@](C)(CC3=C(O)C(=O)C=C(N[C@H](C(=O)O)[C@@H](C)O)C3=O)[C@@H](C)CC[C@]12C` belongs over 400 µM; to `CC1=CCC[C@H]2[C@](C)(CC3=C(N[C@@H](CO)C(=O)O)C(=O)C=C(N[C@@H](CO)C(=O)O)C3=O)[C@@H](C)CC[C@]12C`, over 400 µM.

The molecule `CC1=CCC[C@H]2[C@](C)(CC3=C(O)C(=O)C=C(N[C@@H](C(=O)O)[C@@H](C)O)C3=O)[C@@H](C)CC[C@]12C` came in with an IC50 of over 400 µM. Take `CC1=CCC[C@H]2[C@](C)(CC3=C(O)C(=O)C=C(N[C@H](C(=O)O)C(C)C)C3=O)[C@@H](C)CC[C@]12C`: the IC50 worked out at 250 µM. In turn, `CC1=CCC[C@H]2[C@](C)(CC3=C(O)C(=O)C=C(N[C@H](CO)C(=O)O)C3=O)[C@@H](C)CC[C@]12C` gave an IC50 of over 400 µM. Consider `CC1=CCC[C@H]2[C@](C)(CC3=C(O)C(=O)C=C(N[C@@H](C(=O)O)C(C)C)C3=O)[C@@H](C)CC[C@]12C`, for which the IC50 is 200 µM. Still for that read-out and setting: to `CC1=CCC[C@H]2[C@](C)(CC3=C(O)C(=O)C=C(NCC(=O)O)C3=O)[C@@H](C)CC[C@]12C` belongs over 400 µM. The same measure, in the same setting: to `CC1=CCC[C@H]2[C@](C)(CC3=C(N[C@H](C(=O)O)[C@@H](C)O)C(=O)C=C(N[C@H](C(=O)O)[C@@H](C)O)C3=O)[C@@H](C)CC[C@]12C` belongs 200 µM.
